Source: patent publication US20080057047A1, “Use of bacillus amyloliquefaciens PB6 for the prophylaxis or treatment of gastrointestinal and immuno-related diseases” (priority 2005, published 2008)
Converted amounts (≈) assume the structure as drawn. Like-named read-outs stand apart in the source and are kept apart here. Numbered stars: 1 amine (or outer) side, 2 acyl side, 3 side chain; on linkers, the order of the positions; unused ones are H or OH. Bridge positions count the residues as written; N and C are the ends. Square brackets hold non-standard residues; d marks the D form. Peptide text beside a SMILES is read from it. X1 = CC(C)CCCCCCCCC[C@H](CC(=O)[*:1])O[*:2]

Key:
TNBS-induced colitis = TNBS-induced colitis in rats; assay type: in vivo, Wistar rats; settings: for number of animals affected by diarrhea / number of observations of diarrhea recorded: day 1 to 7
Description: Two consecutive trials were done. Male Wistar rats were obtained from the National Centre for Laboratory Animal Sciences (Hyderabad, India) (trial 1) or from the Department of Animal Medicine, […], India) (trial 2). […] Upon their arrival at the test facility, the animals were given a complete clinical examination under the supervision of a veterinarian to ensure that they were in good condition. The animals were acclimatized to the study conditions for a period of at least 7 days. Per trial, animals were randomised and allocated to one of the study groups. […] All animals had free access (except for the overnight fasting prior to TNBS administration) to rat pellet feed from the National Institute of Nutrition (NIN, Hyderabad, India) and Aquaguard purified water ad libitum. In both trials the day of induction of colitis was set as day 1. […] The colitis-negative control groups were given saline intrarectally (0.5 ml per animal once) on day 1. […] Except for infliximab, which was injected intravenously^59, all treatments were administered by gavage. Twice daily observations were made for clinical signs and mortality. […] These segments were opened longitudinally. […] Mesalazine (Mesacol®, Sun Pharmaceutical Ind. Ltd, Mumbai, India) tablets were powdered using pestle and mortar and a solution in distilled water was prepared containing 25 mg 5-aminosalicylic acid per ml. […] Remicade® (Infliximab) (Centocor B. V., Leiden, The Netherlands) was first reconstituted with 10 ml water for injection and was further diluted to 2 mg/ml concentration using saline. […] All body weight dependant doses were administered on the basis of the last individual body weight taken. Fresh preparations were made prior to each administration. The preparations were stirred vigorously before each dosing.

C. perfringens ATCC13124 = test: microbe, parasite or virus in culture; assay type: cell-based; settings: Clostridium perfringens, ATCC13124, 18 h
Clostridium perfringens = test: microbe, parasite or virus in culture; assay type: cell-based
cytosolic PLA2 = target: T1, cytosolic PLA2 (Homo sapiens, UniProt P47712); settings: known from literature; cited from earlier work
T1 sequence (P47712 1-749): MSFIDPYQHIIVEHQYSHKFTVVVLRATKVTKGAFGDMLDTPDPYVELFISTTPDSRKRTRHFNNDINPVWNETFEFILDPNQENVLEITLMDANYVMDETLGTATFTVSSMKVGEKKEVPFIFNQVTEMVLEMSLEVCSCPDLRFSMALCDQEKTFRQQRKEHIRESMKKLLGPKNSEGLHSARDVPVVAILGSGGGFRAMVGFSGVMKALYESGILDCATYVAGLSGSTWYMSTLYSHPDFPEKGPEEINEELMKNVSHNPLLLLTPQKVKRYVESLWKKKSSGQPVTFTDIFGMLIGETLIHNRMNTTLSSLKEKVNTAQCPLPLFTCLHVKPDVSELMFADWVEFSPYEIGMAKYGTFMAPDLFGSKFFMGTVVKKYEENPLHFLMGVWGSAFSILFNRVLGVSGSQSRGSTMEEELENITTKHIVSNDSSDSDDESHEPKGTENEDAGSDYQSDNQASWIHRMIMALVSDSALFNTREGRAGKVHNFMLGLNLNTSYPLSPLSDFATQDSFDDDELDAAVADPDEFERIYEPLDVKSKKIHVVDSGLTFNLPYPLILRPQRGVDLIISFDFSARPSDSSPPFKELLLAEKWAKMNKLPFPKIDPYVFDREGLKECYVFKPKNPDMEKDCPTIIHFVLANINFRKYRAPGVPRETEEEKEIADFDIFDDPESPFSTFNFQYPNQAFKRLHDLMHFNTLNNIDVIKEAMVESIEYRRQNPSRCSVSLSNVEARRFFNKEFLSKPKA

[1] = test system: Clostridium difficile ATCC 9689; test: Clindamycin-induced CDAD hamster model; assay type: in vivo, Golden Syrian hamsters; settings: for diarrhea score / Number of animals with diarrhea: vancomycin 50 mg/Kg oral once daily days 2-6; for Number of animals tested positive for C difficile toxins A or B in faeces: vancomycin
[2] = Immune response (phagocytosis) in male broilers; assay type: in vivo; settings: 100 mg/kg zinc bacitracin
[3] = Trial 1, Day 1 (baseline), mesalazine 250 mg/Kg/day, infliximab 3 mg/Kg single i.v. dose
[4] = Trial 1, Day 1 to 7, mesalazine 250 mg/Kg/day, infliximab 3 mg/Kg single i.v. dose
[5] = Trial 1, Day 4, mesalazine 250 mg/Kg/day, infliximab 3 mg/Kg single i.v. dose
[6] = Trial 1, Day 7, mesalazine 250 mg/Kg/day, infliximab 3 mg/Kg single i.v. dose
[7] = Trial 1, scale 0-5, mesalazine 250 mg/Kg/day, infliximab 3 mg/Kg single i.v. dose
[8] = Trial 1, mesalazine 250 mg/Kg/day, infliximab 3 mg/Kg single i.v. dose
[9] = Trial 2, Day 1 (baseline), PB6 and S. boulardii 1.5 10^8 CFU/Kg 3 times daily, mesalazine 250 mg/Kg/day, infliximab 3 mg/Kg single dose
[10] = Trial 2, Day 1 to 7, doses as for Day 1
[11] = Trial 2, Day 4, doses as for Day 1
[12] = Trial 2, Day 7, doses as for Day 1
[13] = Trial 2, scale 0-5, PB6 and S. boulardii 1.5 10^8 CFU/Kg 3 times daily, mesalazine 250 mg/Kg/day, infliximab 3 mg/Kg single dose
[14] = Trial 2, PB6 and S. boulardii 1.5 10^8 CFU/Kg 3 times daily, mesalazine 250 mg/Kg/day, infliximab 3 mg/Kg single dose
[15] = first trial, mesalazine 250 mg/Kg/day, infliximab 3 mg/Kg single dose
[16] = second trial, PB6 and S. boulardii 3×1.5 10^8 CFU/Kg/day, mesalazine 250 mg/Kg/day, infliximab 3 mg/Kg single dose
[17] = trial 1, one individual rat, infliximab 3 mg/Kg

## Infliximab: Remicade® (Infliximab), Centocor, standard drug
TNBS-induced colitis; [3]
  Av. Body weight: 180 ± 14 g
TNBS-induced colitis; [4]
  Av. Body weight gain (%): 1.3 ± 5.4 %
TNBS-induced colitis; [5]
  Av. Body weight: 183 ± 7 g
TNBS-induced colitis; [6]
  Av. Body weight: 186 ± 6 g
TNBS-induced colitis; [7]
  Gross morphology score: 3.0 ± 1.4
TNBS-induced colitis; [8]
  Wet weight (g) of a 5 cm colon segment: 1.055 ± 0.490‘ g
TNBS-induced colitis; [9]
  Av. Body weight: 208 ± 15 g
TNBS-induced colitis; [10]
  Av. Body weight gain (%): −5.2 ± 3.4%
TNBS-induced colitis; [11]
  Av. Body weight: 197 ± 14 g
TNBS-induced colitis; [12]
  Av. Body weight: 197 ± 13 g
TNBS-induced colitis; [13]
  Gross morphology score: 2.0 ± 0.7
TNBS-induced colitis; [14]
  Wet weight (g) of a 5 cm colon segment: 0.657 ± 0.076 g
TNBS-induced colitis; first trial, infliximab 3 mg/Kg single dose
  number of animals affected by diarrhea: 1
TNBS-induced colitis; [15]
  number of observations of diarrhea recorded: 8
TNBS-induced colitis; [16]
  number of animals affected by diarrhea: 2
  number of observations of diarrhea recorded: 24
TNBS-induced colitis; [17]
  colon segment weight of one rat: 0.402 g
  gross morphology score of one rat: 1

## Nc1ccc(O)c(C(=O)O)c1 [Mesalazine, 5-aminosalicylic acid]
TNBS-induced colitis; [3]
  Av. Body weight: 181 ± 11 g
TNBS-induced colitis; [4]
  Av. Body weight gain (%): 8.8 ± 1.4 %
TNBS-induced colitis; [5]
  Av. Body weight: 187 ± 10 g
TNBS-induced colitis; [6]
  Av. Body weight: 196 ± 10 g
TNBS-induced colitis; [7]
  Gross morphology score: 0.8 ± 0.4
TNBS-induced colitis; [8]
  Wet weight (g) of a 5 cm colon segment: 0.435 ± 0.052 g
TNBS-induced colitis; [9]
  Av. Body weight: 207 ± 12 g
TNBS-induced colitis; [10]
  Av. Body weight gain (%): −3.3 ± 5.5%
TNBS-induced colitis; [11]
  Av. Body weight: 199 ± 18 g
TNBS-induced colitis; [12]
  Av. Body weight: 201 ± 20 g
TNBS-induced colitis; [13]
  Gross morphology score: 1.2 ± 0.8
TNBS-induced colitis; [14]
  Wet weight (g) of a 5 cm colon segment: 0.445 ± 0.145 g
TNBS-induced colitis; [15]
  number of observations of diarrhea recorded: 0
TNBS-induced colitis; [16]
  number of animals affected by diarrhea: 1
  number of observations of diarrhea recorded: 12

## CC(C)CCCCCCCCC[C@@H]1CC(=O)N[C@@H](CCC(=O)O)C(=O)N[C@@H](CC(C)C)C(=O)N[C@H](CC(C)C)C(=O)N[C@@H](C(C)C)C(=O)N[C@@H](CC(=O)O)C(=O)N[C@H](CC(C)C)C(=O)N[C@@H](CC(C)C)C(=O)O1 [surfactin] (EL[dL]VD[dL]L; linker N-C via X1)
C. perfringens ATCC13124
  MIC: 10 to 25 µg/mL (≈ 9.65 to 24.1 µM)
Clostridium perfringens; read-out: MIC (C. perfringens), 30′ 0.1 N HCl, 37° C.
  MIC: 10 to 25 µg/mL (≈ 9.65 to 24.1 µM)
Clostridium perfringens; read-out: MIC (C. perfringens), 60′ 0.1 N HCl, 37° C.
  MIC: 25 to 50 µg/mL (≈ 24.1 to 48.2 µM)
Clostridium perfringens; read-out: MIC (C. perfringens), 90′ 0.1 N HCl, 37° C.
  MIC: 25 to 50 µg/mL (≈ 24.1 to 48.2 µM)
Clostridium perfringens; read-out: MIC (C. perfringens), No HCL
  MIC: 1 to 10 µg/mL (≈ 0.965 to 9.65 µM)
Cytosolic PLA2
  inhibition of the activity of cytosolic PLA2: inhibits

## CN[C@H](CC(C)C)C(=O)N[C@H]1C(=O)N[C@@H](CC(N)=O)C(=O)N[C@H]2C(=O)N[C@H]3C(=O)N[C@H](C(=O)N[C@H](C(=O)O)c4cc(O)cc(O)c4-c4cc3ccc4O)[C@H](O)c3ccc(c(Cl)c3)Oc3cc2cc(c3O[C@@H]2O[C@H](CO)[C@@H](O)[C@H](O)[C@H]2O[C@H]2C[C@](C)(N)[C@H](O)[C@H](C)O2)Oc2ccc(cc2Cl)[C@H]1O [Vancomycin, vancomycin]
[1]; Day 0 (baseline), CDAD induced, vancomycin 50 mg/Kg
  Average body weight: 218.0 ± 4.6 g
[1]; Day 1
  diarrhea score: +
[1]; Day 1, 6 animals
  Number of animals with diarrhea: 1
[1]; Day 1, 6 tested
  Number of animals tested positive for C difficile toxins A or B in faeces: 0
[1]; Day 2
  Number of animals with diarrhea: 2
  diarrhea score: ++
[1]; Day 2, 6 tested
  Number of animals tested positive for C difficile toxins A or B in faeces: 2
[1]; Day 3
  Number of animals with diarrhea: 2
  diarrhea score: +++
[1]; Day 7, 4 tested
  Number of animals tested positive for C difficile toxins A or B in faeces: 1
[1]; day 6, vancomycin 50 mg/Kg once daily
  Survival at end of treatment period: 4 out of 6

## zinc bacitracin
[2]
  Phagocytosis: 6.23
